Experimental data taken from patent publication US9932339B2, “Helquats with heteroaromatic substituents, preparation thereof, and use thereof as G-quadruplex stabilizers” (USTAV ORGANICKE CHEMIE A BIOCHEMIE AV CR, V.V.I., priority 2014, dated 2018).

How the values were obtained:
[1] = test system: c-myc protein; test: Immunodetection of protein c-myc in HGC-27 cell lysates (Western blot); assay type: cell-based, human; conditions: 50 μmol · l^−1, 24 hour incubation, normalized to β-actin
Procedure: Determination of changes in c-myc protein expression (transcription factor) in cell lysates prepared from tumor cell line HGC-27 after treatment with test helquats (Tab. 7) was carried out by immunodetection after separation of proteins according to their size by gel electrophoresis (SDS-PAGE) and blotting.
To determine the influence helquats on expression of c-myc protein, the cells were cultured under standard conditions and in the exponential growth phase were seeded into flasks at a density of 25,000 cells/cm^2. The next day selected helquats were added at a concentration of 50 μmol·l^−1. After 24 hour incubation, the cell pellets were obtained and, after addition of RIPA buffer with protease inhibitors (PrIC) and phosphatases (PhIC) (for composition see Tab. 8) cell lysates were prepared. 150 μl of RIPA buffer was used for 10^7 cells. Protein concentrations in the lysates were measured by BCA method. Separation of proteins in the lysates was carried out on a 12% denaturing polyacrylamide gel. The separated proteins were transferred to PVDF membrane by Western blotting.
Incubation with primary mouse monoclonal antibody against the protein c-myc (dilution 1:1000 in “SignalBoost” reagent) was carried out overnight at 4° C., and then with the primary mouse anti-β-actin (1:5000 dilution in 5% milk in TBS-T buffer) at room temperature for 2 hours. Subsequently, the secondary horse monoclonal antibody conjugated to horseradish peroxidase (diluted 1:2000 in 5% milk in TBS-T buffer) binding to mouse IgG antibody was applied. C-myc proteins and β-actin bound to the membrane were visualized using detection kit (SuperSignal® West Femto Maximum Sensitivity Substrate, Cat. No. 34095, Thermo Fisher Scientific, Inc., USA) in the chemiluminescence detection system ImageQuant LAS 4000 Mini (Cat. No. 28-9558-13, GE Healthcare Life Sciences, USA). The amount of protein was quantified by densitometry in Quantity One software. The amount of c-myc in the samples was normalized to β-actin, and subsequently related to a control sample.

[2] = test system: G-quadruplex oligonucleotide F21T (human telomere); test: FRET melting of G-quadruplex oligonucleotide F21T with ligands; assay type: binding; conditions: for ΔTm (° C.) F21T/ds26: helquat 1 μmol·l^−1, oligonucleotide 0.2 μmol·l^−1, 50-fold excess of double-stranded competitor ds26; for ΔTm (° C.) F21T: helquat 1 μmol·l^−1, oligonucleotide 0.2 μmol·l^−1, without competitor
From the text: (§1) To determine the degree of in vitro interactions of helquats with G-quadruplex(es), the oligonucleotides containing the guanine-rich sequences of human telomere (F21T) and NHE III1 promoter region of c-myc oncogene (Fmyc27T) were used. Both oligonucleotides capable of forming an intramolecular G-quadruplex were end-labeled with suitable fluorophores so as to form donor-acceptor FRET pair (5′-FAM and 3′-TAMRA). If the oligonucleotide is folded into the structure of the G-quadruplex, donor is in close proximity of acceptor and radiationless energy transfer to the acceptor occurs. With increasing temperature of the reaction mixture G-quadruplex structure gradually denatures and thus the donor and acceptor (FAM-TAMRA) drift apart. This leads to an increase in fluorescence of donor (FAM) and a decrease in fluorescence of acceptor (TAMRA).
(§2) The result of measurement is the curve of dependence of the intensity of fluorescence of the donor on the temperature. If the G-quadruplex is stabilized by ligand, melting temperature will increase. Melting temperature of G-quadruplex corresponds to the temperature when 50% of the original amount of the folded G-quadruplex is denatured. The measurement outcome is the difference in the melting temperatures (ΔTm) of the G-quadruplex alone and the G-quadruplex stabilized by ligand. In case of Fmyc27T experiments were performed in cacodylate buffer (10 mmol·l^−1, pH=7.2) with KCl (5 mmol·l^−1) and LiCl (95 mmol·l^−1) oligonucleotide and in case of F21T oligonucleotide in cacodylate buffer (10 mmol·l^−1, pH=7.2) with KCl (25 mmol·l^−1) and LiCl (75 mmol·l^−1).
(§3) Both oligonucleotides were denatured for 5 minutes at 95° C. and subsequently allowed to cool to room temperature (3 hours) in the switched-off thermoblock. The final oligonucleotide concentration in the reaction mixture was 0.2 μmol·l^−1. Test helquats were present at concentrations of 1 μmol·l^−1. The total reaction volume was 30 μl. The melting temperature of the oligonucleotides alone (without the presence of helquats) under these conditions was 58.1±0.2° C. for F21T and 64.7±0.4° C. for Fmyc27T. For determining the selectivity of binding of helquats to G-quadruplex in comparison with the double-stranded DNA, 50-fold excess of double-stranded DNA ([…] unlabeled competitor ds26 forming a hairpin) is added to the reaction mixture. After the addition to the reaction mixture ds26 competes with labeled oligonucleotide (Fmyc27T or F21T) for ligand binding. […] Melting temperature of oligonucleotides alone in the presence of the competitor is 59.4±0.5° C. for F21T and 66.3° C.±0.6° C. for Fmyc27T.
(§4) Fluorescence of FAM donor was measured using real-time PCR apparatus Opticon 2 (excitation 470-505 nm and emission 523-543 nm) in temperature increments of 0.5° C. in the range 25 to 95° C. Evaluation of the sigmoid curves of fluorescence intensity dependent on the temperature were performed in GraphPad Prism 5 (GraphPad Software, Inc., USA). Using nonlinear five parametric regression the inflection point on the curve was calculated that corresponds to the melting temperature (Tm) of the G-quadruplex under the given conditions. The values were obtained from at least three independent measurements.

[3] = test system: G-quadruplex in promoter region of the c-myc gene (NHE III1 segment); test: Dual luciferase analysis with plasmid pGL4.10-myc (luc2) in HGC-27 cells; assay type: cell-based, human; conditions: Homo sapiens; for inhibition at 50 µM: HGC-27, text summary of tab. 5 (50 μmol·l^−1), read-out: inhibition of expression of firefly luciferase as compared to control; for activity at 50 µM: helquat 50 μmol · l^−1, HGC-27, firefly normalized to Renilla, 24 hours after transfection, read-out: luciferase expression relative to control (control = 100%)
From the text: A dual luciferase analysis was used to determine the degree of stabilization of G-quadruplex in a promoter region of the c-myc gene on cellular level. Stabilization of G-quadruplex is expressed as the ratio of expression of two luciferases (firefly and Renilla) from the co-transfected vectors pGL4.10-myc (luc2) and pRL-TK (Renilla) into a cell line HGC-27 expressing c-myc protein. Expression of the reporter gene (firefly luciferase) from pGL4.10-myc vector is controlled by the c-myc regulatory region of a length of 860 by (in the range from −306 to +554). The inserted sequence contains NHE III1 segment which forms G-quadruplex [Yang, D. et al. (2010) Future Med Chem., 2, 619], and is responsible for as much as 90% of the transcriptional activity of the c-myc gene.
Level of expression of firefly luciferase reporter gene corresponds to promoter activity of c-myc and thus to the degree of stabilization of the G-quadruplex. The signal is normalized to Renilla luciferase expression from pRL-TK vector under the control of a constitutive viral thymidine kinase (HSV-TK) promoter. The amount of Renilla luciferase expression serves as an internal control for normalization of firefly signal on transfection efficiency in the sample. Plasmids pGL4.10-myc (luc2) and pRL-TK were propagated in Escherichia coli (DH5α strain) and purified using the Qiagen Plasmid Mini and Midi kits. Cells were cultured under standard conditions and in exponential growth phase were seeded into a white 96-well microtiter plates. Transfection was carried out using a transfection reagent X-tremeGENE HP DNA in OptiMEM media for two hours. The ratio of reporter and control vector was 1:1 and the ratio of transfection reagent to the total amount of DNA was 1:1. Two hours after transfection helquats were added in a concentration of 50 μmol·l^−1. Quantity of firefly and Renilla luciferases in the samples was determined 24 hours after transfection. Dual luciferase analysis was performed using a commercially available kit (Promega, cat. No. E1960) according to manufacturer's instructions. Luminescence was measured using a luminometer EnSpire Alpha Plate Reader. The data obtained were normalized to the Renilla luciferase signal and then the values were related to control.

[4] = test system: G-quadruplex oligonucleotide Fmyc27T (NHE III1 promoter region of c-myc oncogene); test: FRET melting of G-quadruplex oligonucleotide Fmyc27T with ligands; assay type: binding; conditions: for ΔTm (° C.) Fmyc27T/ds26 (° C.): helquat 1 μmol·l^−1, oligonucleotide 0.2 μmol·l^−1, 50-fold excess of double-stranded competitor ds26; for ΔTm (° C.) Fmyc27T: helquat 1 μmol·l^−1, oligonucleotide 0.2 μmol·l^−1, without competitor
From the text: as §1, §2, §3, §4

Row | Compound | c-myc protein expression relative to control (control = 100%) [1] | ΔTm (° C.) F21T/ds26 [2] | ΔTm (° C.) F21T [2] | inhibition at 50 µM [3] | activity at 50 µM [3] | ΔTm (° C.) Fmyc27T/ds26 (° C.) [4] | ΔTm (° C.) Fmyc27T [4]
1 | 2,4,15,17-tetra((E)-(2-(1-methyl-1H-indol-2-yl)vinyl)-6,7,8,11,12,13-hexahydrodipyrido[1,2-a:1′,2′-a′]benzo[2,1-c:3,4-c′]bisazepindiium trifluoromethanesulfonate [PRC-C10-10] | 71% |  |  |  |  |  | 
2 | C(=C\c1cc(/C=C/c2ccsc2)[n+]2c(c1)-c1c(ccc3c1-c1cc(/C=C/c4ccsc4)cc(/C=C/c4ccsc4)[n+]1CCC3)CCC2)/c1ccsc1 (racemic) [PRC-C5-9, (rac)-2,4,13,15-tetrakis((E)-2-(thiophen-3-yl)vinyl)-6,7,8,11,12,13-hexahydro-dipyrido[1,2-a;1′,2′-a′]benzo[2,1-c:3,4-c′]bisazepindiium trifluoromethanesulfonate] | 34% |  |  |  |  |  | 
3 | C(=C\c1cc2ccccc2[nH]1)/c1cc(/C=C/c2cc3ccccc3[nH]2)[n+]2c(c1)-c1c(ccc3c1-c1cccc[n+]1CC3)CC2.O=S(=O)([O-])C(F)(F)F.O=S(=O)([O-])C(F)(F)F [HTA-C10-10, 2,4-bis((E)-2-(1H-indol-2-yl)vinyl)-6,7,10,11-tetrahydrodipyrido[2,1-a:1′,2′-k][2,9]phenanthroline-5,12-diium trifluoromethanesulfonate] | 75% |  |  |  |  |  | 
4 | COc1ccc(/C=C/c2cc[n+]3c(c2)-c2c(c(C)c(C)c4c2-c2cccc(/C=C/c5ccc(OC)nc5OC)[n+]2CC4)CC3)c(OC)n1.O=S(=O)([O-])C(F)(F)F.O=S(=O)([O-])C(F)(F)F [MJB-C8-27, 2,13-bis((E)-2-(2,6-dimethoxypyridin-3-yl)vinyl)-8,9-dimethyl-6,7,10,11-tetrahydrodipyrido[2,1-a:1′,2′-k][2,9]phenanthroline-5,12-diium trifluoromethanesulfonate] |  | 5.2 °C | 8.0 °C | > 10% | 88% | 10.0 °C | 9.7 °C
5 | COc1ccc(/C=C/c2cc[n+]3c(c2)-c2c(ccc4c2-c2cc(/C=C/c5ccc(OC)nc5OC)cc[n+]2CC4)CC3)c(OC)n1 [PDA-C8-27, 2,15-bis((E)-2-(2,6-dimethoxypyridin-3-yl)vinyl)-6,7,10,11-tetrahydrodipyrido[2,1-a:1′,2′-k][2,9]phenanthroline-5,12-diium trifluoromethanesulfonate] |  | 7.0 °C | 9.3 °C | > 20% | 77% | 9.6 °C | 11.8 °C
6 | Brc1ccc2[nH]cc(/C=C/c3cc[n+]4c(c3)-c3c(ccc5c3-c3cc(/C=C/c6c[nH]c7ccc(Br)cc67)cc[n+]3CC5)CC4)c2c1.O=S(=O)([O-])C(F)(F)F.O=S(=O)([O-])C(F)(F)F [PDA-C9-30, 2,15-bis((E)-2-(5-bromo-1H-indol-3-yl)vinyl)-6,7,10,11-tetrahydrodipyrido[2,1-a:1′,2′-k][2,9]phenanthroline-5,12-diium trifluoromethanesulfonate] |  | 13.1 °C | 12.3 °C |  |  | 16.0 °C | 14.6 °C
7 | Cn1cc(/C=C/c2cc[n+]3c(c2)-c2c(ccc4c2-c2cc(/C=C/c5cn(C)c6ccccc56)cc[n+]2CC4)CC3)c2ccccc21 [PDA-C10-13, 2,15-bis((E)-2-(1-methyl-1H-indol-3-yl)vinyl)-6,7,10,11-tetrahydrodipyrido[2,1-a:1′,2′-k][2,9]phenanthroline-5,12-diium trifluoromethanesulfonate] |  | 9.1 °C | 9.7 °C |  |  | 13.6 °C | 13.8 °C
8 | Cc1c(C)c2c(c3c1CC[n+]1ccc(/C=C/c4c(-c5ccccc5)[nH]c5ccccc45)cc1-3)-c1cc(/C=C/c3c(-c4ccccc4)[nH]c4ccccc34)cc[n+]1CC2 [PDB-C15-8, 8,9-dimethyl-2,15-bis((E)-2-(2-phenyl-1H-indol-3-yl)vinyl)-6,7,10,11-tetrahydrodipyrido[2,1-a:1′,2′-k][2,9]phenanthroline-5,12-diium trifluoromethanesulfonate] |  | 11.1 °C | 11.3 °C |  |  | 14.5 °C | 15.7 °C
